This passage reports IC50 results from PubChem BioAssay AID1645868 (Buhrlage Lab, Dana-Farber Cancer Institute and Novartis …, 2021).

This experiment has as its target OTU domain-containing protein 3 (Homo sapiens) (UniProt Q5T2D3). In words: Validation of screening hits, potency titration, in vitro enzymatic, OTU domain-containing protein 3 DUB inhibitors (AID 1645868). The note with it: purified OTUD3, ubiquitin-rhodamine cleavage fluorescence, 2 h.

The source made the active and inactive calls.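 Rule for the calls: active = maximal percent inhibition of the deubiquitinase OTUD3 of at least 30% across the tested doses; inactive = the rest.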 Positions of bridges follow the written chain, without caps; N, C: chain ends. Residues, ends and D or L forms follow the SMILES beside them. ξ: configuration not given here. *: point of attachment. Pentadecanoyl(3ξ-OH,15-Gua) = N=C(N)NCCCCCCCCCCCCC(O)CC(=O)*

OTU domain-containing protein 3 (Homo sapiens), sequence (Q5T2D3 whole entry, looked up, the tested form may be a part): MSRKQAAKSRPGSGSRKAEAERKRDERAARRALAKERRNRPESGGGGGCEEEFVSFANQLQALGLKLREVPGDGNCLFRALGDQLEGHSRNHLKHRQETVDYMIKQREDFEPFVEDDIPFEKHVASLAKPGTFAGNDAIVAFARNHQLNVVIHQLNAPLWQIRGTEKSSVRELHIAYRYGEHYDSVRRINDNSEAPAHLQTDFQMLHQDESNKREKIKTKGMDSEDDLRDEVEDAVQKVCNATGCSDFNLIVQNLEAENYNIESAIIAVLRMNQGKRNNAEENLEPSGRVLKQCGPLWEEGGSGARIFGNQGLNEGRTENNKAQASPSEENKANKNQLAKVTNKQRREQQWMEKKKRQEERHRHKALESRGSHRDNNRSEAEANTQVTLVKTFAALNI

One may read the IC50 as the concentration needed to halve the response being measured. `Cc1cc(O)c(Oc2cc(C)cc(O)c2O)c(O)c1`: the IC50 was 16.8 µM.

Take `CCOc1ccc(S(=O)(=O)Nc2ccc[nH]c2=O)cc1`: the IC50 was > 50 µM (inactive). To `CC(C)C1Cc2c(sc3nc(SCC(=O)Nc4cccc5ccccc45)nc(N)c23)CO1` (configuration not stated) belongs > 50 µM (inactive). To `N[C@@H](Cc1ccccc1)C(=O)N1CCC2(CC1)CN(C(=O)c1ccc(Cl)cc1)CCO2` belongs > 50 µM (inactive); to `COc1ccc(C(=O)Nc2sc3c(c2C(=O)NCc2cccnc2)CCCC3)cc1`, > 50 µM (inactive). On to `CN(C(=O)c1ccncc1)[C@H]1CC[C@@]2(C)C[C@H](c3ccccc3)C[C@](C)(O2)[C@@H]1O`, for which the IC50 was > 50 µM (inactive).

For `CC(=O)Nc1ccc(-n2cnc(C(=O)NC(C)c3ccccc3)c2)nc1` (configuration not stated), the IC50 is > 50 µM (inactive). Consider `CC(=O)c1ccc(NC(=O)CSc2nc(-c3ccccc3)nc3c2COC(C)(C)C3)cc1`, for which the IC50 was > 50 µM (inactive). In the case of `CCOC(=O)c1cc2c(ccn2C)n1Cc1cccc2ccccc12` it was > 50 µM (inactive); in that of `COc1cccc2cc(C(=O)Nc3ccc4c(c3)OCCO4)oc12`, > 50 µM (inactive); in that of `NS(=O)(=O)c1ccc(Cl)c(C(=O)OCc2csc(Nc3ccccc3)n2)c1`, > 50 µM (inactive). For `O=C(COC(=O)c1ccc(NS(=O)(=O)c2ccc3c(c2)OCCO3)cc1)NCc1ccc(Cl)cc1`, the IC50 is > 50 µM (inactive). In the case of `Cc1cc(C)cc(N(CCC(=O)Nc2ccc(N3CCOCC3)cc2)S(=O)(=O)c2ccc(Cl)cc2)c1` it was 19.7 µM; in that of `O=C(Nc1ccc(Oc2cccc3cccnc23)cc1)c1cccs1`, > 50 µM (inactive). Regarding `Cc1ccc2c(c1)-c1c(c(C(=O)N3CCN(c4ccccc4)CC3)nn1C)CS2`, the IC50 is > 50 µM (inactive). To `COc1ccccc1-n1nnc(C(=O)Nc2ccc(Oc3ccccc3)cc2)c1C` belongs > 50 µM (inactive). With `Cc1cccc(NC(=O)c2nc(N3CCSCC3)c3cnn(C)c3n2)c1`, the IC50 was > 50 µM (inactive). `O=C1CC(c2ccco2)Cc2[nH]c(=O)c(-c3nc(-c4ccc(Cl)cc4)cs3)cc21` (configuration not stated): the IC50 was > 50 µM (inactive).

Turning to `COc1ccc(C(=O)Nc2nc3n(n2)C(c2ccccc2)CC(=O)N3)cc1` (configuration not stated), the IC50 is 18.7 µM. In the case of `c1cncc(-c2nc(Nc3ccc4c(c3)OCCO4)c3ccccc3n2)c1` it was > 50 µM (inactive); in that of `CC1=C(c2ccc(C)c(C)c2)S(=O)(=O)NC1=NCC(=O)NCCCc1ccccc1`, 46.8 µM. Take `N#Cc1ccc(Cn2nnc(-c3cccc(Cl)c3)n2)cc1`: the IC50 was > 50 µM (inactive). To `COc1cccc2sc(N3CCN(c4nc5ccccc5s4)CC3)nc12` belongs > 50 µM (inactive). Regarding `O=C(NC1CCN(Cc2ccccc2)CC1)c1[nH]nc2c1CCc1ccccc1-2`, the IC50 was > 50 µM (inactive). As to `O=C(CSc1nnc(CNC(=O)c2ccccc2F)o1)Nc1ccc(OC(F)(F)F)cc1`, the IC50 is 29.6 µM. `Cc1noc(-c2cc(=O)n(CC(=O)NCc3ccccc3)c3ccccc23)n1`: the IC50 was > 50 µM (inactive).

On to `Cc1oc(C2CC2)cc1C(=O)N1CCC2(CC1)CC1(CO2)Nc2ccccc2-n2cccc21` (configuration not stated), for which the IC50 was > 50 µM (inactive). To `Cc1cc(C(=O)CSc2nc3ccccc3[nH]2)c(C)n1Cc1ccco1` belongs > 50 µM (inactive); to `Cc1cc2nc(Oc3cccc(Cl)c3)c3ccccc3n2n1`, > 50 µM (inactive); to `O=C(Cn1cnc2c(oc3ccccc32)c1=O)NCc1ccccc1Cl`, 36.7 µM.

Consider `O=C(Cc1noc2ccccc12)N1CCN(c2ccc([N+](=O)[O-])cc2)CC1`, for which the IC50 is > 50 µM (inactive). To `Cc1ccc(Cn2c(=O)n(CCC(=O)NCCc3ccccc3)c(=O)c3ccccc32)cc1` belongs 18.6 µM.

Take `Cc1ccc2[nH]c3c(=O)n(CC4CCCO4)cnc3c2c1` (configuration not stated): the IC50 is 44.9 µM. As to `CC(C)N1C[C@@H]2C[C@H](NS(=O)(=O)c3cccc(C#N)c3)CN2Cc2ccccc21`, the IC50 was > 50 µM (inactive). Regarding `COc1ccccc1-c1nc2c3c(ncn2n1)Oc1c(c(C)nn1-c1ccccc1)C3c1cccnc1` (configuration not stated), the IC50 was > 50 µM (inactive). To `CC(C)c1nc2sc3c(NCc4ccco4)ncnc3c2c2c1CCC2` belongs > 50 µM (inactive); to `COc1ccc(C(=O)N2CCCC3(C2)Nc2cccnc2NC3=NC2CCCC2)cn1` (configuration not stated), > 50 µM (inactive); to `N#Cc1c(Cl)cccc1Oc1ccc(S(=O)(=O)N2CCC(O)CC2)cc1`, 21.3 µM. To `Cc1ccc(-c2nc(-c3cccs3)cc(C(F)(F)F)c2C#N)cc1` belongs > 50 µM (inactive). To `CCCCCC(O)c1c(O)cc2c(c1O)C(=O)c1c(O)cc(O)cc1C2=O` (configuration not stated) belongs > 50 µM (inactive); to `O=C(Cc1ccc(Cl)c(Cl)c1)OCC(=O)c1c[nH]c2ccccc12`, > 50 µM (inactive); to `COc1ccc2nc(-c3ccc(NC(=O)c4cccc(OC)c4OC)cc3)cn2n1`, > 50 µM (inactive). Regarding `O=C(COc1ccc(Cl)cc1Cl)Nc1ccc2[nH]c(=O)[nH]c2c1`, the IC50 is 19.2 µM. In the case of `CCCn1c(=O)c(-c2ccc(C(=O)NCc3ccc(OC)cc3)cc2)nc2cccnc21` it was 6.42 µM; in that of `COc1ccc(C(=O)CCN2CCOCC2)cc1[N+](=O)[O-]`, > 50 µM (inactive); in that of `NC(=O)CCC(=O)N[C@H]1C[C@H]2CN(Cc3ccccc3)c3ccccc3CN2C1`, > 50 µM (inactive). Turning to `Cc1c(-c2ccc(C#N)cc2)oc2ccc(Br)cc2c1=O`, the IC50 was > 50 µM (inactive). Consider `CCn1c(SCc2cccc(C)c2)nnc1-c1cnccn1`, for which the IC50 is > 50 µM (inactive). In the case of `CCCn1cc(C(=O)N2CCC3(CC2)CC2(CO3)Nc3ccccc3-n3cccc32)c(C)n1` (configuration not stated) it was > 50 µM (inactive); in that of `Cc1ccccc1NC(=O)Nc1ccccc1OCc1cc(=O)n2cccc(C)c2n1`, 4.24 µM. To `Cc1ccc(C)c(S(=O)(=O)N2CCN(c3ccc4nnc(-c5ccco5)n4n3)CC2)c1` belongs > 50 µM (inactive); to `FC(F)(F)c1ccccc1CCN1CCc2nc3ncc(Cl)cc3cc2C1`, > 50 µM (inactive); to `O=C(Nc1ccc(-c2cn3ccsc3n2)cc1)c1ccc(Cl)c([N+](=O)[O-])c1`, 5.01 µM. To `O=C(NCC(c1cccnc1)N1CCc2ccccc2C1)C(=O)Nc1ccc2c(c1)OCO2` (configuration not stated) belongs 37.7 µM. In the case of `COc1cccc(-n2c(CNCc3cccnc3)nc3ccc([N+](=O)[O-])cc3c2=O)c1`, the IC50 is > 50 µM (inactive).

With `CC1NC(=O)C(CC(N)=O)NC(=O)C(C(C)O)NC(=O)C(Cc2ccc(O)cc2)NC(=O)C(C(C)C)NC(=O)C(NC(=O)CC(O)CCCCCCCCCCCCN=C(N)N)C(C)OC1=O` (configuration not stated) ({Pentadecanoyl(3ξ-OH,15-Gua)}-TVYTNA; ester 1-C; configuration not given here), the IC50 was 36.6 µM. Regarding `Cc1ccc(C(=O)Nc2ccc3c(c2)C(=O)N(C)c2ccccc2O3)cc1C`, the IC50 is > 50 µM (inactive).

As to `COc1ccc(-n2nnc(C(=O)Nc3ccc(F)cc3)c2C)cc1`, the IC50 is > 50 µM (inactive). In the case of `CO/C=C/C(=O)c1cc2cnc3c(=N)cc(NC(C)=O)c([nH]1)c23` it was > 50 µM (inactive); in that of `CC1=CN2C(=N)/C(=C/c3cn(Cc4ccc(Cl)cc4)c4ccccc34)C(=O)N=C2S1`, > 50 µM (inactive); in that of `CCOc1ccc(NC(=O)Cn2c(=O)n(CCC(=O)NCc3ccccc3OC)c(=O)c3ccccc32)cc1`, 15.4 µM. Take `COc1ccc(CN2C[C@@H]3C[C@]3(c3ccccc3)C(=O)c3ncccc32)cc1`: the IC50 is > 50 µM (inactive).

Take `CCN1CCN(C(=O)CCCN(c2ccccc2)S(C)(=O)=O)CC1`: the IC50 is > 50 µM (inactive).

On to `Cc1cc(NC(=O)c2[nH]nc3c2CCc2ccccc2-3)no1`, for which the IC50 was 37.9 µM.

For `Oc1ccc(-c2nc3cnccn3c2NCCc2ccccc2)c(O)c1`, the IC50 is > 50 µM (inactive). In the case of `COc1cccc(NC(=O)Cn2c(COc3ccccc3)nc3ccccc32)c1` it was > 50 µM (inactive); in that of `CN(C)C1CCN(C(=O)c2cc(-c3ccn(-c4ccccc4)n3)n3ccccc23)CC1`, > 50 µM (inactive); in that of `Cn1ccc2c(cc(C(=O)NCCC3=CCCCC3)n2C)c1=O`, > 50 µM (inactive). In the case of `CCOc1ccc2c(c1)c(=O)c(C(=O)c1ccc(C)cc1)cn2CC(=O)Nc1ccc(OC)cc1` it was > 50 µM (inactive). To `COc1ccc(N2C(=O)[C@@H]3[C@H]4c5ccccc5C=CN4C(C(=O)Nc4ccc5c(c4)OCO5)[C@@H]3C2=O)cc1` (some centres not stated) belongs > 50 µM (inactive); to `CSc1cccc(NC(=O)CCc2ccc3nc(NC(C)=O)sc3c2)c1`, > 50 µM (inactive); to `COc1ccc(NCc2nc3ccccc3n2Cc2ccccc2)cc1`, > 50 µM (inactive). On to `COc1ccccc1CNC(=O)c1c(O)c2cnn(-c3cccc(C)c3)c2[nH]c1=O`, for which the IC50 was > 50 µM (inactive). To `CC(C)NS(=O)(=O)c1cccc2c(NC(=O)C(Cc3ccccc3)NC(=O)c3ccccc3)cccc12` (configuration not stated) belongs > 50 µM (inactive); to `O=C(Cn1c(=O)n(Cc2ccccc2)c(=O)c2ncccc21)NCc1ccccc1Cl`, > 50 µM (inactive); to `O=C(Nc1ncc2c(n1)-c1ccccc1CC2)C1CC1`, 35.9 µM. `Cc1ccc(-c2c(C(=O)Nc3ccc(S(N)(=O)=O)cc3)oc(=O)c3ccccc23)cc1`: the IC50 is 35 µM. To `COc1ccccc1CNC(=O)c1ccc(CSc2nc3ccncc3n2Cc2ccccc2)cc1` belongs > 50 µM (inactive); to `CS(=O)(=O)N1CCCc2cc(C(=O)Nc3ccc(Oc4ccccc4)cc3)ccc21`, > 50 µM (inactive). For `Cc1ccc(-c2ncc(C(=O)NCc3cccc(C)c3)c(-c3ccncc3)n2)cc1`, the IC50 was > 50 µM (inactive). To `COC1C(O)=C2C(=O)O/C(C)=C/C=C/C=C/C=C/CC(c3ccccc3)NC(=O)/C=C/C=C/C=C\C=C\C2(C)C1O` (configuration not stated) belongs > 50 µM (inactive). To `COc1cccc(NC(=O)C2Cc3ccccc3N2C(=O)c2ccccc2)c1` (configuration not stated) belongs 20.1 µM.
